The test system of assay [1] is human erythroleukemia (K562) cell line. As to the kind of experiment: MTS cell proliferation assay, K562. It is filed as cell-based. As to conditions: for IC50: Homo sapiens, MTS; for SI (selectivity index) K562: ratio of cytotoxicity PBMC / K562, calculated at 72 h.
The test system of assay [2] is cervical carcinoma (HeLa) cell line. As to the kind of experiment: MTS cell proliferation assay, HeLa. It is filed as cell-based, human. To be noted: for IC50: Homo sapiens, HeLa, MTS; for SI (selectivity index) HeLa: ratio of cytotoxicity PBMC / HeLa, calculated at 72 h.
Assay [3] concerns acute T cell leukemia (Jurkat) cell line. As to the kind of experiment: MTS cell proliferation assay, Jurkat. It is filed as cell-based, human. To be noted: for IC50: Homo sapiens, Jurkat, MTS; for SI (selectivity index) Jurkat: ratio of cytotoxicity PBMC / Jurkat, calculated at 72 h. Here is the method: (§1) Cancer cell lines are valuable in vitro model systems that are widely used in cancer research and drug discovery. Their use is mainly linked to their possibility to provide for experimental purposes an unlimited source of biological material. Here, the 24 and 72 h in vitro MTS assay was used to determine the antiproliferative activity of synthesized spiro-fused cyclopropa[a]pyrrolizidine-2,3′-oxindoles and [3-azabicyclo[3.1.0]hexane]-oxindoles against human erythroleukemia (K562), acute T cell leukemia (Jurkat), cervical carcinoma (HeLa), melanoma (Sk-mel-2), breast cancer adenocarcinoma (MCF-7) as well as mouse colon carcinoma (CT26) cell lines. […] The full results of these investigations are presented in the Supporting Information Figures S1–S6. […] An evaluation of the cytotoxicity of the selected compounds towards normal cells (peripheral blood mononuclear cells) was performed additionally to understand their respective relative selectivities. The selectivity index was obtained using the ratio of measured cytotoxicity between the PBMC cells and each of the cancer cell lines, and the results are presented in Table 3.
(§2) The human erythroleukemia (K-562), cervical carcinoma (HeLa) as well as mouse colon carcinoma (CT26) cell lines were obtained from the Bank of Cell Cultures of the Institute of Cytology of the Russian Academy of Sciences; the human melanoma (Sk-mel-2) cell line was obtained from the Bank of Cell Cultures of the Institute of Cytology and Genetics, Siberian Branch of the Russian Academy of Sciences. The acute T cell leukemia (Jurkat) cell line was obtained from the Bank of Cell Cultures of the Institute of Immunology of the Russian Academy of Medical Sciences. The peripheral blood mononuclear cells (PBMC) were isolated from the blood of healthy donors. K-562, Jurkat, MCF-7, PBMC and CT26 cells were grown on RPMI medium (Hyclone, GE Healthcare Life Sciences, Logan, UT, USA) supplemented with 10% (v/v) fetal bovine serum (Hyclone, GE Healthcare Life Sciences, Logan, UT, USA) and gentamicin (Sigma-Aldrich, St. Louis, MO, USA) at 37 °C in a humidified atmosphere with 5% CO2. HeLa and Sk-mel-2 cells were cultured with the same supplements and conditions in DMEM medium (Hyclone, GE Healthcare Life Sciences, Logan, UT, USA).
(§3) To evaluate the in vitro toxicity of the compounds synthesized, cells were seeded into 96-well plates at a density of 5 × 10^3 cells per well. On the next day, the tested compounds were added to the wells at concentrations ranging from 1 to 30 μg/mL, followed by incubation for 1 and 3 days. Cell proliferation was determined by adding 20 μL of MTS reagent (BioVision, Milpitas, CA, USA) stock solution per well. The plates were incubated for 2 h at 37 °C in a humidified, 5% CO2 atmosphere. The plates were then read at 495 nm using a plate spectrophotometer (Multiskan GO, Thermo Fisher Scientific, Waltham, MA, USA). All samples were measured in triplicate.

The test system of assay [4] is breast cancer adenocarcinoma (MCF-7) cell line. As to the kind of experiment: MTS cell proliferation assay, MCF-7. To be noted: for IC50: Homo sapiens, MTS; for SI (selectivity index) MCF-7: ratio of cytotoxicity PBMC / MCF-7, calculated at 72 h. It is filed as cell-based, human. Here is the method: as §1, §2, §3
Assay [5] relates to melanoma (Sk-mel-2) cell line. As to the kind of experiment: MTS cell proliferation assay, Sk-mel-2. It is filed as cell-based, human. To be noted: for IC50: Homo sapiens, MTS; for SI (selectivity index) Sk-mel-2: ratio of cytotoxicity PBMC / Sk-mel-2, calculated at 72 h.
Assay [6] concerns mouse colon carcinoma (CT26) cell line. As to the kind of experiment: MTS cell proliferation assay, CT26. It is filed as cell-based. To be noted: for IC50: Mus musculus, MTS; for SI (selectivity index) CT26: ratio of cytotoxicity PBMC / CT26, calculated at 72 h.
For assay [7], the system named is peripheral blood mononuclear cells (PBMC). The experiment in a line: MTS cytotoxicity towards normal cells, PBMC. To be noted: Homo sapiens. It is filed as cell-based. Here is the method: as §1, §2, §3
In assay [8] the test system is HeLa cells actin cytoskeleton. As to the kind of experiment: Actin cytoskeleton staining, confocal microscopy, HeLa. It is filed as cell-based, human. To be noted: 10 μg/mL, 24 h; for HeLa cells with filopodia-like deformations: control cells 93%, lowest value over the compounds; for HeLa cells with granular actin distributed diffusely in the cytoplasm (stress fibers disappeared): maximum over the compounds. Here is the method:
It was found using confocal microscopy that incubation with spiro-fused [3-azabicyclo[3.1.0]hexane]oxindoles 4, 8, 17, 18, 22, 24 and cyclopropa[a]pyrrolizidine-2,3′-oxindole 2 led to significant changes in the HeLa cells’ actin cytoskeleton structure leading to the disappearance of stress fibers (granular actin was distributed diffusely in the cytoplasm in up to 38% of treated cells) and changes in the number of filopodia-like deformations (reduced from 93% in control cells to 64% after treatment). The impact on the Sk-mel-2 cells’ actin cytoskeleton structure was even greater: granular actin was distributed diffusely in the cytoplasm in up to 90% of treated cells while the number of filopodia-like deformations was reduced by up to 23%. Such changes in the cytoskeleton may indicate a change in the motor activity of cells, which may indicate a decrease in the ability of tumor cells to metastasize.
HeLa cells were seeded at a density of 2 × 10^5 cells per dish onto a petri dish with cover slips and incubated for 24 h. After that, cells were treated with chosen compounds (10 μg/mL) for 24 h. The medium was removed and cells were fixed with 4% paraformaldehyde (Sigma-Aldrich, St. Louis, MO, USA), washed three times with PBS, and permeabilized with 0.3% Triton-X100 (Sigma-Aldrich, St. Louis, MO, USA). The cells were rinsed three times with PBS. Actin filaments (microfilaments) were stained with rhodamine–phalloidin (Invitrogen, Carlsbad, CA, USA) at 37 °C for 15 min. The samples were rinsed three times with PBS, followed by embedding in Fluoroshield medium (Sigma-Aldrich, St. Louis, MO, USA). Cells were imaged using an Axio Observer Z1 confocal microscope (Carl Zeiss MicroImaging GmbH, Jena, Germany). In each experiment, at least 30 cells were imaged. Images were analyzed by a pathologist blinded to the treatment mode used for each group using ImageJ software, 1.52v.

The test system of assay [9] is K562, Jurkat, HeLa, Sk-mel-2, MCF-7 and CT26 cell lines. As to the kind of experiment: MTS cell proliferation assay, panel of cell lines (summary statements). As to conditions: 72 h; range over four cell lines and compounds; read-out: IC50 against the Jurkat, K-562, HeLa and Sk-mel-2 cell lines. It is filed as cell-based. Here is the method: as §1, §2, §3
For orientation: Tetrazolium dyes change colour on reduction, which living cells bring about.

Where [10] appears, read: read-out: IC50 K562 24 h, K562, 24 h.
Setting [11] is: K562, 72 h, read-out: IC50 K562 72 h.
Setting [12] is: read-out: IC50 Jurkat 24 h, 24 h.
Where [13] appears, read: 72 h, read-out: IC50 Jurkat 72 h.
The mark [14] stands for this setting: MCF7, read-out: IC50 MCF-7 24 h, MCF-7, 24 h.
Setting [15] is: MCF7, MCF-7, 72 h, read-out: IC50 MCF-7 72 h.
Where [16] appears, read: read-out: IC50 Sk-mel-2 24 h, Sk-mel-2, 24 h.
[17] abbreviates: Sk-mel-2, 72 h, read-out: IC50 Sk-mel-2 72 h.
Where [18] appears, read: read-out: IC50 CT26 24 h, CT26, 24 h.
Where [19] appears, read: CT26, 72 h, read-out: IC50 CT26 72 h.

Like-named read-outs stand apart in the source and are kept apart here.

With `CC[C@H](C)C1NC2(C(=O)Nc3ccccc32)C2(c3ccccc3)C(C(=O)OC)C12c1ccccc1` (stereo partly shown) [Compound 4], the IC50 in assay [1] (setting [10]) is 32 ± 2 µM; in [1] (setting [11]) it was 6 ± 1 µM; in assay [2] (read-out: IC50 HeLa 24 h, 24 h) it was above 40 µM; in [2] (72 h, read-out: IC50 HeLa 72 h) it was 9 ± 1 µM; in assay [3] (setting [12]), 11 ± 1 µM; in assay [3] (setting [13]), 4 ± 1 µM. Besides, the IC50 in assay [4] (setting [14]) was above 40 µM; in assay [4] (setting [15]) it was above 40 µM; in assay [5] (setting [16]) it was above 40 µM; in assay [5] (setting [17]), 9 ± 1 µM; in assay [6] (setting [18]), above 40 µM; in assay [6] (setting [19]), 21 ± 2 µM. Also, the IC50 in [7] (72 h, read-out: IC50 PBMC 72 h) was 92 ± 9 µM; in assay [7] (read-out: IC50 PBMC 24 h, 24 h) it was 174 ± 17 µM; in assay [9] it was 2 to 10 µM. The “SI (selectivity index) K562” value in assay [1] is 14. The “SI (selectivity index) HeLa” value in assay [2] is listed as 11. Also, the “SI (selectivity index) Jurkat” value in assay [3] is listed as 22. In assay [4], the “SI (selectivity index) MCF-7” value is listed as 2. The “SI (selectivity index) Sk-mel-2” value in assay [5] is reported as 11. The “SI (selectivity index) CT26” value in assay [6] was 4. The “HeLa cells with filopodia-like deformations” value in assay [8] is reported as at least 64%. In [8], the “HeLa cells with granular actin distributed diffusely in the cytoplasm (stress fibers disappeared)” value is “up to 38%”.

For `NC(=O)CC1NC2(C(=O)Nc3ccccc32)C2(c3ccccc3)C(c3ccccc3)C12c1ccccc1` (stereo not shown) [Compound 18], the IC50 in assay [1] (setting [10]) turned out to be 14 ± 2 µM; in assay [1] (setting [11]) it was 6 ± 1 µM; in assay [2] (read-out: IC50 HeLa 24 h, 24 h), 23 ± 2 µM; in assay [2] (72 h, read-out: IC50 HeLa 72 h), 10 ± 2 µM; in assay [3] (setting [12]), 6 ± 1 µM; in assay [3] (setting [13]), 2 ± 1 µM. The half-maximal inhibitory concentration (IC50) in assay [4] (setting [14]) is above 40 µM; in assay [4] (setting [15]) it was 14 ± 1 µM; in assay [5] (setting [16]), 29 ± 2 µM; in assay [5] (setting [17]), 10 ± 1 µM; in assay [6] (setting [18]), 27 ± 2 µM; in assay [6] (setting [19]), 10 ± 1 µM. The IC50 was 12 ± 1 µM in assay [7] (72 h, read-out: IC50 PBMC 72 h); 29 ± 3 µM in assay [7] (read-out: IC50 PBMC 24 h, 24 h); 2 to 10 µM in [9]. Moreover, in assay [1], the “SI (selectivity index) K562” value was 2. The “SI (selectivity index) HeLa” value in [2] is given as 1. Also, in assay [3], the “SI (selectivity index) Jurkat” value is 6. Further, in assay [4], the “SI (selectivity index) MCF-7” value is recorded as 1. Also, the “SI (selectivity index) Sk-mel-2” value in assay [5] is reported as 1. For the same molecule, the “SI (selectivity index) CT26” value in [6] is given as 1. Also, the “HeLa cells with filopodia-like deformations” value in assay [8] is listed as at least 64%. In addition, the “HeLa cells with granular actin distributed diffusely in the cytoplasm (stress fibers disappeared)” value in assay [8] is listed as “up to 38%”.

By IC50 is commonly meant the concentration that inhibits the measured activity by half.
